In patent US20240165074A1, “COMPOSITION OF THE PHYTOCOMPOUNDS INTENDED TO ENHANCE CYTOTOXIC ACTIVITY IN THE TREATMENT OF ACUTE LYMPHOBLASTIC LEUKEMIA” (GDANSKI UNIWERSYTET MEDYCZNY, priority 2021, published 2024):
Where two headings read alike, the source gives them in different places.

Legend:
[1] = defines dose 1×; cited from earlier work
[2] = tested on: MOLT-4 (the line of human ALL leukemia); experiment: MTT viability test on MOLT-4 cells; format: cell-based; settings: for time after which viability of MOLT-4 neoplastic cells was reduced: bioavailable dose (1×), MTT; for impact on viability of MOLT-4 cells: even at doses attainable exclusively in vitro (2×)
Experimental: (§1) 1. Viability Test Comprising the Use of a Test Cell Line (Cultures in the Presence of Individual Phytochemicals or their Mix) and the Control Line
(§2) The test is based on an assessment of the enzymatic activity of mitochondria using MTT, 3-(4,5-Dimethylthiazol-2-yl)-2,5-diphenyltetrazolium) bromide. Live and metabolically active cells reduce MTT to formazan crystals. In the test, a 96-well plate was seeded with […] per well in the volume of 50 μl of standard culture medium, followed by the addition of serial dilutions of the analysed compounds in the volume of 50 μl of the culture medium to obtain the final volume of 100 μl. An identical quantity of the solvent without the analysed phytocompounds was added to the control wells. The phytocompounds were stored dissolved in 100% DMSO, and therefore each dilution and the culture media added for control were supplemented with DMSO up to the non-toxic final concentration of 0.05%. The viability of the cells was assessed after a specific incubation time (24-, 48-, or 72-hours) by adding 20 μl of the yellow MTT solution to each well, and the colorimetric conversion of MTT into purple formazan crystals was assessed after 2-3 hours of incubation by dissolving the crystals with acidic isopropanol and taking a spectrophotometric measurement at the wavelength of 570 nm.
The measurements of cell viability with the application of this assay were performed on the following lines: MOLT-4 (the line of human ALL leukemia, a standard cell line used to assess the effects of pharmaceutical compounds on this type of leukemias) and BJ (human foreskin fibroblasts, primary cells grown in a short-term culture).

[3] = tested on: BJ (human foreskin fibroblasts); experiment: MTT viability test on BJ control cells; format: cell-based; settings: 0.5×, 1×, 2×; 24 and 72 hours (FIG. 2)
Experimental: as §1
as §2, with “nm. […]” for “nm.”

O=c1c(-c2ccc(O)cc2)coc2cc(O)cc(O)c12 [genistein]
maximum level of bioavailability of the compound in the blood [1]: 3 µg/mL
time after which the biological effect (reduced MOLT-4 viability) was attained ([2]; dose 0.5×): 72 hours
time after which viability of MOLT-4 neoplastic cells was reduced ([2]; single compound): 48 h
cytotoxicity to MOLT-4 cells ([2]; single compound, dose 2×): relatively highly cytotoxic
viability of BJ cells [3]: do not decrease the viability

Oc1ccc(C=Cc2cc(O)cc(O)c2)cc1 [resveratrol]
maximum level of bioavailability of the compound in the blood [1]: 0.5 µg/mL
impact on viability of MOLT-4 cells ([2]; single compound): did not demonstrate any impact on the viability

COc1cc(/C=C/C(=O)CC(=O)/C=C/c2ccc(O)c(OC)c2)ccc1O [curcumin]
maximum level of bioavailability of the compound in the blood [1]: 2.25 µg/mL
cytotoxicity to MOLT-4 cells [2]: relatively highly cytotoxic
time after which viability of MOLT-4 neoplastic cells was reduced ([2]; single compound): 72 h

O=c1c(O)c(-c2ccc(O)c(O)c2)oc2cc(O)cc(O)c12 [quercetin]
maximum level of bioavailability of the compound in the blood [1]: 1.5 µg/mL
impact on viability of MOLT-4 cells ([2]; single compound): did not demonstrate any impact on the viability
